According to patent US11773085B2 (Foghorn Therapeutics Inc., priority 2018, dated 2023):

How the values were obtained:
[1] = tested on: synovial sarcoma cell lines (SYO1, Yamato, HS-SY-II, and ASKA); test: Growth of synovial sarcoma cell lines (IncuCyte confluency, crystal violet, colony imaging); type: cell-based; conditions: 1 μM in crystal violet assay, FIGS. 5, 6, 7
Description: (§1) Cells were treated with DMSO or the BRD9 degrader, Compound 1, at indicated concentrations, and proliferation was monitored from day 7 to day 14 by measuring confluency over time using an IncuCyte live cell analysis system (FIG. 5). Growth medium and compounds were refreshed every 3-4 days.
(§2) Cells were seeded into 12-well plates and treated with DMSO, 1 μM BRD9 inhibitor, Compound 2 (also known as BI-7273, see Martin et al, J Med Chem. 59(10):4462-4475 (2016); see structure of compound 2 below), or 1 μM BRD9 degrader, Compound 1.
(§3) The number of cells was optimized for each cell line. Growth medium and compounds were refreshed every 3-5 days. SYO1, Yamato, A549, 293T and HS-SY-II cells were fixed and stained at day 11. ASKA cells were fixed and stained at day 23. Staining was done by incubation with crystal violet solution (0.5 g Crystal Violet, 27 ml 37% Formaldehyde, 100 mL 10×PBS, 10 mL Methanol, 863 dH20 to 1 L) for 30 min followed by 3× washes with water and drying the plates for at least 24 h at room temperature. Subsequently plates were scanned on an Odyssey CLx Imaging system (FIG. 6).
(§4) Cells were seeded into 96-well ultra low cluster plate (Costar, #7007) in 200 μL complete media and treated at day 2 with DMSO, Staurosporin, or BRD9 degarder, Compound 1, at indicated doses (FIG. 7). Media and compounds were changed every 5 d and cell colonies were imaged at day 14.

[2] = tested on: non-synovial control cancer cell lines (293T, A549, G401); test: Growth of non-synovial control cancer cell lines (crystal violet, colony imaging); type: cell-based; conditions: FIGS. 5, 6, 7
Description: as §1, §2, §3, §4

[3] = tested on: synovial sarcoma cell lines (SYO1, HS-SY-II, and ASKA); test: Growth of synovial sarcoma cell lines, crystal violet staining at day 14; type: cell-based; conditions: for inhibition of cell growth: SYO1, HS-SY-II, ASKA, treated daily, day 14, FIG. 8
Description: (§5) Cells were seeded into 6-well or 12-well plates and were treated daily with a BRD9 degrader (Compound 1), a bromo-domain BRD9 binder (Compound 2), E3 ligase binder (lenalidomide), DMSO, or staurosporin (positive control for cell killing), at indicated concentrations. The number of cells was optimized for each cell line. Growth media was refreshed every 5 days. By day 14, medium was removed, cells were washed with PBS, and stained using 500 μL of 0.005% (w/v) crystal violet solution in 25% (v/v) methanol for at least 1 hour at room temperature. Subsequently plates were scanned on an Odyssey CLx Imaging system.

[4] = tested on: non-synovial control cancer cell lines (RD, HCT116, and Calu6); test: Growth of non-synovial control cancer cell lines, crystal violet staining at day 14; type: cell-based; conditions: treated daily, FIG. 9
Description: as §5

SYO1 cells [5] = test: Cell cycle analysis, Click-iT Plus EdU Flow Cytometry Assay; type: cell-based; conditions: SYO1, 200 nM or 1 μM, 8 or 13 days, compared to DMSO and lenalidomide
Description: (§6) SYO1 cells were treated for 8 or 13 days with DMSO, a BRD9 degrader (Compound 1) at 200 nM or 1 μM, or an E3 ligase binder (lenalidomide) at 200 nM. Compounds were refreshed every 5 days. Cell cycle analysis was performed using the Click-iT™ Plus EdU Flow Cytometry Assay (Invitrogen). The apoptosis assay was performed using the Annexin V-FITC Apoptosis Detection Kit (Sigma A9210). Assays were performed according to the manufacturer's protocol.

SYO1 cells [6] = test: Apoptosis assay, Annexin V-FITC Apoptosis Detection Kit; type: cell-based; conditions: SYO1, 200 nM or 1 μM, 8 days, compared to DMSO controls
Description: as §6

BRD9 bromodomain = BRD9 bromodomain (Homo sapiens (Human), UniProt Q9H8M2); test: BRD9 bromodomain TR-FRET competition binding assay; conditions: 3 nM Flag-BRD9, 3.75 nM biotinylated ligand, 90 minutes at room temperature
Description: Cleaved His tag was removed by purification.
A mixture of biotinylated-ligand and SureLight™ Allophycocyanin-Streptavidin (APC-SA, PerkinElmer AD0201) in 50 mM HEPES (pH 7.4), 50 mM NaCl, 1 mM TCEP (pH 7), 0.01% (v/v) Tween-20, 0.01% (w/v) bovine serum albumin was added to a white 384-well PerkinElmer Proxiplate Plus plate. DMSO or 3-fold serially diluted compounds were then added to the Proxiplate followed by addition of Flag-BRD9. After a 10 minute incubation at room temperature, Eu-W1024 anti-FLAG (PerkinElmer, AD0273) was added.

[7] = biological target: Nanoluciferase-BRD9 fusion protein (3×FLAG-NLuc-BRD9) (Homo sapiens (Human), UniProt Q9H8M2); test: SYO1 BRD9 NanoLuc degradation assay; type: cell-based; conditions: SYO-1 cells expressing 3×FLAG-NLuc-BRD9, 6 hours, 1 μM top dose; read-out: SYO1 BRD9-NanoLuc degradation IC50
Description: A stable SYO-1 cell line expressing 3×FLAG-NLuc-BRD9 was generated. On day 0 cells were seeded in 30 μL media into each well of 384-well cell culture plates. The seeding density was 8000 cells/well. […] Subsequently plates were incubated for 6 hours in a standard tissue culture incubator and equilibrated at room temperature for 15 minutes. Nanoluciferase activity was measured by adding 15 μL of freshly prepared Nano-Glo Luciferase Assay Reagent (Promega N1130), shaking the plates for 10 minutes and reading the bioluminescence using an EnVision reader.
The Inhibition % was calculated using the following formula: % Inhibition=100×(LumHC−LumSample)/(LumHC−LumLC). DMSO treated cells are employed as High Control (HC) and 1 μM of a known BRD9 degrader standard treated cells are employed as Low Control (LC).

Which results are given for `COc1cc(-c2cn(C)c(=O)c3cnccc23)cc(OC)c1CN(C)CC(=O)NCCOCCOCCNc1cccc2c1C(=O)N(C1CCC(=O)NC1=O)C2=O` (centres unmarked) [Compound 1]?
inhibition of cell growth [1]: results in inhibition of the growth of the cells; inhibition of cell growth [2]: does not result in inhibition of the growth; inhibition of cell growth [3]: resulted in inhibition of the growth of the cells; growth inhibition compared with the other agents tested ([3]; all synovial cell lines, versus Compound 2 and lenalidomide): most significant growth inhibition; inhibition of cell growth [4]: did not result in inhibition of the growth; numbers of cells in the S-phase of the cell cycle (SYO1 cells [5]): reduced numbers of cells in the S-phase; numbers of early- and late-apoptotic cells (SYO1 cells [6]): increased numbers of early- and late-apoptotic cells

`COc1cc(-c2cn(C)c(=O)c3cnccc23)cc(OC)c1CN(C)C` [Compound 2] was tested. Which “inhibition of cell growth” value [1] did it give?
The value was “results in inhibition of the growth of the cells”.

And the “inhibition of cell growth” value [2]?
The value was “does not result in inhibition of the growth”.

What about the “inhibition of cell growth” value [3] of the same molecule?
The value was “resulted in inhibition of the growth of the cells”.

What about the “inhibition of cell growth” value [4] of the same molecule?
The value was “did not result in inhibition of the growth”.

What does the source list for `COc1cc(-c2cn(C)c(=O)c3cnccc23)cc(OCC(=O)NCCCCCCCCNc2cccc3c2C(=O)N(C2CCC(=O)NC2=O)C3=O)c1OC` (centres unmarked) [Compound D10, 2-(2,3-dimethoxy-5-(2-methyl-1-oxo-1,2-dihydro-2,7-naphthyridin-4-yl)phenoxy)-N-(8-((2-(2,6-dioxopiperidin-3-yl)-1,3-dioxoisoindolin-4-yl)amino)octyl)acetamide]?
IC50 (BRD9 bromodomain): 10 to 100 nM; DC50 [7]: < 10 nM

Which IC50 (BRD9 bromodomain) does the source give for `COc1cc(-c2cn(C)c(=O)c3cnccc23)cc(OC)c1CN(C)C(=O)CCCOc1cccc2c1C(=O)N(C1CCC(=O)NC1=O)C2=O` (centres unmarked) [Compound D11, N-[[2,6-dimethoxy-4-(2-methyl-1-oxo-1,2-dihydro-2,7-naphthyridin-4-yl)phenyl]methyl]-4-[[2-(2,6-dioxopiperidin-3-yl)-1,3-dioxo-2,3-dihydro-1H-isoindol-4-yl]oxy]-N-methylbutanamide] here?
The IC50 was < 10 nM.

And the DC50 [7]?
Its DC50 is < 10 nM.

Which results are given for `COc1cc(-c2cn(C)c(=O)c3cnccc23)cc(OC)c1CN(C)C(=O)CCCCOc1cccc2c1C(=O)N(C1CCC(=O)NC1=O)C2=O` (centres unmarked) [Compound D12, N-[[2,6-dimethoxy-4-(2-methyl-1-oxo-1,2-dihydro-2,7-naphthyridin-4-yl)phenyl]methyl]-5-[[2-(2,6-dioxopiperidin-3-yl)-1,3-dioxo-2,3-dihydro-1H-isoindol-4-yl]oxy]-N-methylpentanamide]?
IC50 (BRD9 bromodomain): < 10 nM; DC50 [7]: < 10 nM

What does the source list for `COc1cc(-c2cn(C)c(=O)c3cnccc23)cc(OC)c1CN(C)CC(=O)N(C)CCOCCOCCNc1cccc2c1C(=O)N(C1CCC(=O)NC1=O)C2=O` (centres unmarked) [Compound D13, 2-((2,6-dimethoxy-4-(2-methyl-1-oxo-1,2-dihydro-2,7-naphthyridin-4-yl)benzyl)(methyl)amino)-N-(2-(2-(2-((2-(2,6-dioxopiperidin-3-yl)-1,3-dioxoisoindolin-4-yl)amino)ethoxy)ethoxy)ethyl)-N-methylacetamide]?
IC50 (BRD9 bromodomain): 10 to 100 nM; DC50 [7]: 10 to 100 nM

Which results are given for `COc1cc(-c2cn(C)c(=O)c3cnccc23)cc(OC)c1CN(C)C(=O)CCOc1cccc2c1C(=O)N(C1CCC(=O)NC1=O)C2=O` (centres unmarked) [Compound D14, N-[[2,6-dimethoxy-4-(2-methyl-1-oxo-1,2-dihydro-2,7-naphthyridin-4-yl)phenyl]methyl]-3-[[2-(2,6-dioxopiperidin-3-yl)-1,3-dioxo-2,3-dihydro-1H-isoindol-4-yl]oxy]-N-methylpropanamide]?
IC50 (BRD9 bromodomain): < 10 nM; DC50 [7]: > 1000 nM

How did the IC50 (BRD9 bromodomain) turn out when `COc1cc(-c2cn(C)c(=O)c3cnccc23)cc(OC)c1CN(C)Cc1cccc2c1C(=O)N(C1CCC(=O)NC1=O)C2=O` (centres unmarked) [Compound D15, 4-(((2,6-dimethoxy-4-(2-methyl-1-oxo-1,2-dihydro-2,7-naphthyridin-4-yl)benzyl)(methyl)amino)methyl)-2-(2,6-dioxopiperidin-3-yl)isoindoline-1,3-dione formic acid] was run?
Its IC50 is 10 to 100 nM.

And the DC50 [7]?
The DC50 was > 1000 nM.

With `COc1cc(-c2cn(C)c(=O)c3cnccc23)cc(OC)c1CN(C)CC(=O)N(C)CCOCCOCCNc1ccc2c(c1)C(=O)N(C1CCC(=O)NC1=O)C2=O` (centres unmarked) [Compound D16, 2-((2,6-dimethoxy-4-(2-methyl-1-oxo-1,2-dihydro-2,7-naphthyridin-4-yl)benzyl)(methyl)amino)-N-(2-(2-(2-((2-(2,6-dioxopiperidin-3-yl)-1,3-dioxoisoindolin-5-yl)amino)ethoxy)ethoxy)ethyl)-N-methylacetamide] as the molecule, how does the IC50 (BRD9 bromodomain) read?
The IC50 was 10 to 100 nM.

What about the DC50 [7] of the same molecule?
The DC50 was 10 to 100 nM.

For `COc1cc(-c2cn(C)c(=O)c3cnccc23)cc(OC)c1CN(C)CCCCCCCC(=O)N[C@H](C(=O)N1C[C@H](O)C[C@H]1C(=O)NCc1ccc(-c2scnc2C)cc1)C(C)(C)C` [Compound D19, (2S,4R)-1-[(2S)-2-[8-([[2,6-dimethoxy-4-(2-methyl-1-oxo-2,7-naphthyridin-4-yl)phenyl]methyl](methyl)amino)octanamido]-3,3-dimethylbutanoyl]-4-hydroxy-N-[[4-(4-methyl-1,3-thiazol-5-yl)phenyl]methyl]pyrrolidine-2-carboxamide], which IC50 (BRD9 bromodomain) is on record?
Its IC50 is 10 to 100 nM.

And the DC50 [7]?
The DC50 was > 1000 nM.

`COc1cc(-c2cn(C)c(=O)c3cnccc23)cc(OC)c1CN(C)CCOCCOCC(=O)N[C@H](C(=O)N1C[C@H](O)C[C@H]1C(=O)NCc1ccc(-c2scnc2C)cc1)C(C)(C)C` [Compound D20] was tested. Which IC50 (BRD9 bromodomain) did it give?
The IC50 was 10 to 100 nM.

And the DC50 [7]?
Its DC50 is > 1000 nM.
